Source: publication PMC11252457 (Acta Pharmaceutica Sinica. B, 2024)
“And” between values parts separate entries of the source, which are not always exact repeats. Equal entries are not always repeated. Where two headings read alike, the source gives them in different places.

Columns and labels:
[1] = system: HIV-1 mutant strain Y188L; test: microbe, parasite or virus in culture; assay type: cell-based; conditions: for EC50: Human immunodeficiency virus 1, MT4, read-out: EC50 Y188L
[2] = system: HIV-1 mutant strain E138K; test: microbe, parasite or virus in culture; assay type: cell-based; conditions: for EC50: Human immunodeficiency virus 1, MT4, read-out: EC50 E138K
[3] = system: HIV-1 mutant strain L100I; test: microbe, parasite or virus in culture; assay type: cell-based; conditions: Human immunodeficiency virus 1, MT4, read-out: EC50 L100I
[4] = Cytotoxicity in mock-infected MT-4 cells; conditions: human
recombinant WT HIV-1 RT = recombinant WT HIV-1 RT (Human immunodeficiency virus type 1 group M subtype B, UniProt P03366); test: HIV-1 RT inhibition assay; assay type: biochemical
[5] = system: HIV-1 double mutant strain F227L/V106A; test: microbe, parasite or virus in culture; assay type: cell-based; conditions: for EC50: Human immunodeficiency virus 1, MT4, read-out: EC50 F227L/V106A
[6] = system: HIV-1 mutant strain K103N; test: microbe, parasite or virus in culture; assay type: cell-based; conditions: for EC50: Human immunodeficiency virus 1, MT4, read-out: EC50 K103N
WT HIV-1 (IIIB) = test: microbe, parasite or virus in culture; assay type: cell-based; conditions: for EC50: Human immunodeficiency virus 1, IIIB, MT4, read-out: EC50 IIIB; for SI IIIB: ratio of CC50/EC50, IIIB
[7] = system: HIV-1 mutant strain Y181C; test: microbe, parasite or virus in culture; assay type: cell-based; conditions: for EC50: Human immunodeficiency virus 1, MT4, read-out: EC50 Y181C
[8] = system: HIV-1 RES056 (K103N/Y181C); test: microbe, parasite or virus in culture; assay type: cell-based; conditions: for EC50: Human immunodeficiency virus 1, MT4, read-out: EC50 RES056; for SI RES056: ratio of CC50/EC50, RES056
Aqueous solubility = assay type: physicochemical
[9] = cited from earlier work

Row | Structure (SMILES) | EC50 [1] | EC50 [2] | EC50 [3] | CC50 at 5 days [4] | IC50 (recombinant WT HIV-1 RT) | EC50 [5] | EC50 [6] | EC50 (WT HIV-1 (IIIB)) | SI IIIB (WT HIV-1 (IIIB)) | EC50 [7] | EC50 [8] | SI RES056 [8] | further results
1 | Cc1cc(C#N)cc(C)c1Oc1nc(NC2CCN(Cc3ccc(P(C)(C)=O)cc3)CC2)nc2ccsc12 [9a, 4-((2-((1-(4-(Dimethylphosphoryl)benzyl)piperidin-4-yl)amino)thieno[3,2-d]pyrimidin-4-yl)oxy)-3,5-dimethylbenzonitrile] | 11.3 ± 0.87 nM | 7.33 ± 1.36 nM | 7.01 ± 1.76 nM | 215 ± 1.17 µM | 310 ± 10 nM | 21.5 ± 13.5 nM | 2.66 ± 0.85 nM | 2.2 ± 0.33 nM | 97,727 | 12.8 ± 2.62 nM | 257 ± 95.2 nM | 837 | –
2 | Cc1cc(/C=C/C#N)cc(C)c1Oc1nc(NC2CCN(Cc3ccc(P(C)(C)=O)cc3)CC2)nc2ccsc12 [15a, (E)-3-(4-((2-((1-(4-(Dimethylphosphoryl)benzyl)piperidin-4-yl)amino)thieno[3,2-d]pyrimidin-4-yl)oxy)-3,5-dimethylphenyl)acrylonitrile] | 7.96 ± 3.89 nM | 4.28 ± 1.04 nM | 2.84 ± 0.09 nM | 117 ± 23.9 µM | 340 ± 90 nM | 3.76 ± 0.46 nM | 1.27 ± 0.68 nM | 1.75 ± 0.64 nM | – | 5.38 ± 1.61 nM | 15.8 ± 2.62 nM | – | Fold higher activity than RPV, Y188L [1]: about 9.97 fold; Fold more effective than ETR, Y188L [1]: ~2.78 fold; Fold more effective than ETR, E138K [2]: ~2.45 fold; Aqueous solubility (Aqueous solubility; pH = 2.0): 283 µg/mL; Aqueous solubility (Aqueous solubility; pH = 7.4): 27.6 µg/mL; Fold higher activity than RPV, F227L/V106A [5]: ~21.7 fold; Fold more effective than ETR, F227L/V106A [5]: 4.8 fold and ~4.84 fold; Fold more effective than ETR, K103N [6]: 2.4 fold and ~2.39 fold; Fold more effective than ETR, WT (WT HIV-1 (IIIB)): 1.6 fold; Fold more effective than ETR, Y181C [7]: 3.3 fold and ~3.31 fold; Fold more effective than ETR, RES056 [8]: 5.3 fold
3 | Cc1cc(C#N)cc(C)c1Oc1nc(Nc2ccc(C#N)cc2)nc(N)c1Br [ETR, etravirine, reference compound] | 22.1 ± 6.33 nM | 10.5 ± 2.49 nM | 8.39 ± 3.4 nM | > 4.59 µM | – | 18.2 ± 12.4 nM | 3.04 ± 0.9 nM | 2.81 ± 1.08 nM | – | 17.8 ± 5.74 nM | 83.3 ± 21.1 nM | – | Aqueous solubility ([9]; pH = 2.0): 127 µg/mL; Aqueous solubility ([9]; pH = 7.0): <<1 μg/mL; Aqueous solubility ([9]; pH = 7.4): <1 µg/mL
4 | CCOP(=O)(OCC)c1ccc(CN2CCC(Nc3nc(Oc4c(C)cc(C#N)cc4C)c4sccc4n3)CC2)cc1 [9c, Diethyl (4-((4-((4-(4-cyano-2,6-dimethylphenoxy)thieno[3,2-d]pyrimidin-2-yl)amino)piperidin-1-yl)methyl)phenyl)phosphonate] | 17 ± 11 nM | 12.3 ± 1.98 nM | 11.5 ± 3.27 nM | 117 ± 7.75 µM | 760 ± 150 nM | 14.3 ± 4.55 nM | ≤ 4.62 nM | 6.9 ± 1.92 nM | 16,957 | 13.2 ± 5.6 nM | 445 ± 109 nM | 263 | –
